In patent US11192891B2, “Diazaspiro ROCK inhibitors” (BRISTOL-MYERS SQUIBB COMPANY, priority 2017, dated 2021):

Biological target: ROCK2 (Homo sapiens, UniProt O75116)
Experiment: ROCK kinase inhibition assay, FITC peptide substrate, LABCHIP 3000 readout
Format: biochemical
Settings: 5 μM ATP, 1.5 μM peptide substrate
In short: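 Rho kinase variants started the reaction with compound present (DMSO <2%); after incubation, EDTA stop, and phosphorylated and non-phosphorylated peptide separated by microfluidic electrophoresis. Dose-response format, inhibition calculated at each concentration.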

Chain of ROCK2 (O75116 whole entry, species assumed): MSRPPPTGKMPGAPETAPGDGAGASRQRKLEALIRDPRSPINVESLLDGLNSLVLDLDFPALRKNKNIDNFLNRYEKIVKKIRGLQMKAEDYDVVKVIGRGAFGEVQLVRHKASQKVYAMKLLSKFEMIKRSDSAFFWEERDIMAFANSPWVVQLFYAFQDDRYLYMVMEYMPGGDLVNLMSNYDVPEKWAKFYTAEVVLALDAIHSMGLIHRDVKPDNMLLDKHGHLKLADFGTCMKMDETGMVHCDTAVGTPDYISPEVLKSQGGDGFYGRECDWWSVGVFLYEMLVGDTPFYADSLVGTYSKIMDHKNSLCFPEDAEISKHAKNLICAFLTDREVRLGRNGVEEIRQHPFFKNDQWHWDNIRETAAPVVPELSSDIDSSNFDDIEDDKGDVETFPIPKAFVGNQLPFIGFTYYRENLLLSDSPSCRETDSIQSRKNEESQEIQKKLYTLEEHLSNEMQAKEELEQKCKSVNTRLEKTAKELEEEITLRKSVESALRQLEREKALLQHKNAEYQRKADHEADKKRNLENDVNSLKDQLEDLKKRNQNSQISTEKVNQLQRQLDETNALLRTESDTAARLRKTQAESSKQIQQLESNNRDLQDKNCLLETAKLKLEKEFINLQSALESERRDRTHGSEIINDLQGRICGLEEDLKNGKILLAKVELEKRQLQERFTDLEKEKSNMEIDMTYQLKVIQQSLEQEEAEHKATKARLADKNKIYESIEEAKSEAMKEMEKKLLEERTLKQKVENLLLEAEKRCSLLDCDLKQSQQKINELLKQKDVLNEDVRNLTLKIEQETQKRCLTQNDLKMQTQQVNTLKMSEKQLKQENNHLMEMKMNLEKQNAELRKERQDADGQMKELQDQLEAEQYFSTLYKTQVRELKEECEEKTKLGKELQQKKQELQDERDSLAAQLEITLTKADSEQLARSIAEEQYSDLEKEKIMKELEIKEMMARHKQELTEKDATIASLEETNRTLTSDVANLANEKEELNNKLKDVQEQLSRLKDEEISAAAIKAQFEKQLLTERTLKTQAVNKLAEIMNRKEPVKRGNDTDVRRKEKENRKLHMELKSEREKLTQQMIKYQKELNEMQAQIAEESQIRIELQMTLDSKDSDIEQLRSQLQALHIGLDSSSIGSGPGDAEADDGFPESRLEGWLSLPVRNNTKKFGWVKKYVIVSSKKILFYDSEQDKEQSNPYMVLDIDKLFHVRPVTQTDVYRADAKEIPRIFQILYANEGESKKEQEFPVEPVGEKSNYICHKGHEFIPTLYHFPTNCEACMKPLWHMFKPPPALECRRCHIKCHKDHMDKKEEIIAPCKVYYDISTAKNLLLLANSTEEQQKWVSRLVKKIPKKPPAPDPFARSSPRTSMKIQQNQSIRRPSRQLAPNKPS

COc1cc(N2CCC3(CCN(C(=O)c4ccc(Oc5ccc(Cl)cc5)cc4)CC3)C2=O)ccc1-c1cn[nH]c1 [Example 112, 8-[4-(4-chlorophenoxy)benzoyl]-2-[3-methoxy-4-(1H-pyrazol-4-yl)phenyl]-2,8-diazaspiro[4.5]decan-1-one]
IC50: 39 nM

COc1cc(N2CCC3(CCN(C(=O)c4cc(C5CC5)n[nH]4)CC3)C2=O)ccc1-c1cn[nH]c1 [Example 111, 8-(3-cyclopropyl-1H-pyrazole-5-carbonyl)-2-[3-methoxy-4-(1H-pyrazol-4-yl)phenyl]-2,8-diazaspiro[4.5]decan-1-one]
IC50: 17 nM

COc1cc(N2CCC3(CCN(C(=O)c4ccc(N5CCN(C6CCCCC6)CC5)cc4)CC3)C2=O)ccc1-c1cn[nH]c1 [Example 226, 8-[4-(4-cyclohexylpiperazin-1-yl)benzoyl]-2-[3-methoxy-4-(1H-pyrazol-4-yl)phenyl]-2,8-diazaspiro[4.5]decan-1-one]
IC50: 0.7 nM

COc1cc(N2CCC3(CCN(C(=O)c4ccc(N5CCCC5)cc4)CC3)C2=O)ccc1-c1cn[nH]c1 [Example 191]
IC50: 4 nM

COc1cc(N2CCC3(CCN(C(=O)c4cc(C(C)C)n[nH]4)CC3)C2=O)ccc1-c1cn[nH]c1 [Example 110, 2-[3-methoxy-4-(1H-pyrazol-4-yl)phenyl]-8-[3-(propan-2-yl)-1H-pyrazole-5-carbonyl]-2,8-diazaspiro[4.5]decan-1-one]
IC50: 34 nM

CCc1ccc(C(=O)N2CCC3(CC2)CCN(c2ccc(-c4cn[nH]c4)c(OC)c2)C3=O)cc1 [Example 20, 8-(4-ethylbenzoyl)-2-[3-methoxy-4-(1H-pyrazol-4-yl)phenyl]-2,8-diazaspiro[4.5]decan-1-one]
IC50: 50 nM

COc1cc(N2CCC3(CCN(C(=O)c4cnc(C)nc4)CC3)C2=O)ccc1-c1cn[nH]c1 [Example 121, 2-[3-methoxy-4-(1H-pyrazol-4-yl)phenyl]-8-(2-methylpyrimidine-5-carbonyl)-2,8-diazaspiro[4.5]decan-1-one]
IC50: 585 nM

COc1cc(N2CCC3(CCN(C(=O)c4ccc(-c5ccccc5)o4)CC3)C2=O)ccc1-c1cn[nH]c1 [Example 85, 2-[3-methoxy-4-(1H-pyrazol-4-yl)phenyl]-8-(5-phenylfuran-2-carbonyl)-2,8-diazaspiro[4.5]decan-1-one]
IC50: 851 nM

COc1cc(N2CCC3(CCN(C(=O)C4CCC(C(N)=O)CC4)CC3)C2=O)ccc1-c1cn[nH]c1 (stereo not drawn) [Example 148, 4-{2-[3-methoxy-4-(H-pyrazol-4-yl)phenyl]-1-oxo-2,8-diazaspiro[4.5]decane-8-carbonyl}cyclohexane-1-carboxamide]
IC50: 2170 nM

COc1cc(N2CCC3(CCN(C(=O)c4ccc(NC(C)=O)cc4)CC3)C2=O)ccc1-c1cn[nH]c1 [Example 88, N-(4-{2-[3-methoxy-4-(1H-pyrazol-4-yl)phenyl]-1-oxo-2,8-diazaspiro[4.5]decane-8-carbonyl}phenyl)acetamide]
IC50: 73 nM

CN1CCN(c2ccc(C(=O)N3CCC4(CC3)CCN(c3ccc(-c5ccnc(O)c5)cc3)C4=O)cc2)CC1 [Example 32, 2-[4-(2-hydroxypyridin-4-yl)phenyl]-8-[4-(4-methylpiperazin-1-yl)benzoyl]-2,8-diazaspiro[4.5]decan-1-one]
IC50: 54 nM

COc1cc(N2CCC3(CCN(C(=O)c4ccc(-c5cc[nH]n5)cc4)CC3)C2=O)ccc1-c1cn[nH]c1 [Example 53, 2-[3-methoxy-4-(1H-pyrazol-4-yl)phenyl]-8-[4-(1H-pyrazol-3-yl)benzoyl]-2,8-diazaspiro[4.5]decan-1-one]
IC50: 16.5 nM

COc1cc(N2CCC3(CCN(C(=O)c4ccc(C(=O)O)cc4)CC3)C2=O)ccc1-c1cn[nH]c1 [Example 25, 4-{2-[3-methoxy-4-(1H-pyrazol-4-yl)phenyl]-1-oxo-2,8-diazaspiro[4.5]decane-8-carbonyl}benzoic acid]
IC50: 1430 nM

COc1cc(N2CCC3(CCN(C(=O)c4ccc(N5CCN(Cc6ccc(-n7ccnc7)cc6)CC5)cc4)CC3)C2=O)ccc1-c1cn[nH]c1 [Example 220, 8-[4-(4-{[4-(1H-imidazol-1-yl)phenyl]methyl}piperazin-1-yl)benzoyl]-2-[3-methoxy-4-(1H-pyrazol-4-yl)phenyl]-2,8-diazaspiro[4.5]decan-1-one]
IC50: 0.3 nM

COc1cc(N2CCC3(CCN(C(=O)c4ccc(-c5nnco5)cc4)CC3)C2=O)ccc1-c1cn[nH]c1 [Example 163, 2-[3-methoxy-4-(1H-pyrazol-4-yl)phenyl]-8-[4-(1,3,4-oxadiazol-2-yl)benzoyl]-2,8-diazaspiro[4.5]decan-1-one]
IC50: 16 nM

COc1cc(N2CCC3(CCN(C(=O)Nc4ccc(N(C)C)cc4)CC3)C2=O)ccc1-c1cn[nH]c1 [Example 215, N-[4-(dimethylamino)phenyl]-2-[3-methoxy-4-(1H-pyrazol-4-yl)phenyl]-1-oxo-2,8-diazaspiro[4.5]decane-8-carboxamide]
IC50: 791 nM

COc1cc(N2CCC3(CCN(C(=O)c4ccsc4)CC3)C2=O)ccc1-c1cn[nH]c1 [Example 67, 2-[3-methoxy-4-(1H-pyrazol-4-yl)phenyl]-8-(thiophene-3-carbonyl)-2,8-diazaspiro[4.5]decan-1-one]
IC50: 382 nM

COc1cc(N2CCC3(CCN(C(=O)c4cccn4C)CC3)C2=O)ccc1-c1cn[nH]c1 [Example 62, 2-[3-methoxy-4-(1H-pyrazol-4-yl)phenyl]-8-(1-methyl-1H-pyrrole-2 carbonyl)-2,8-diazaspiro[4.5]decan-1-one]
IC50: 1430 nM

COc1cc(N2CCC3(CCN(C(=O)c4ccn5nc[nH]c(=O)c45)CC3)C2=O)ccc1-c1cn[nH]c1 [Example 202, 2-[3-methoxy-4-(1H-pyrazol-4-yl)phenyl]-8-{4-oxo-3H,4H-pyrrolo[2,1-f][1,2,4]triazine-5-carbonyl}-2,8-diazaspiro[4.5]decan-1-one]
IC50: 5.4 nM

COc1cc(N2CCC3(CCN(C(=O)c4ccc(Oc5ncccn5)cc4)CC3)C2=O)ccc1-c1cn[nH]c1 [Example 105, 2-[3-methoxy-4-(1H-pyrazol-4-yl)phenyl]-8-[4-(pyrimidin-2-yloxy)benzoyl]-2,8-diazaspiro[4.5]decan-1-one]
IC50: 78 nM

COc1ccc(C(=O)N2CCC3(CC2)CCN(c2ccc(-c4cn[nH]c4)cc2)C3=O)cc1 [Example 4, 8-(4-methoxybenzoyl)-2-[4-(1H-pyrazol-4-yl)phenyl]-2,8-diazaspiro[4.5]decan-1-one]
IC50: 21 nM

CN1CCN(c2ccc(C(=O)N3CCC4(CC3)CCN(c3cccc(-c5ccc6[nH]ncc6c5)c3)C4=O)cc2)CC1 [Example 51, 2-[3-(1H-indazol-5-yl)phenyl]-8-[4-(4-methylpiperazin-1-yl)benzoyl]-2,8-diazaspiro[4.5]decan-1-one]
IC50: 14 nM

COc1cc(N2CCC3(CCN(C(=O)c4ccc(N5CCN(Cc6ccc(-c7ccccc7)cc6)CC5)cc4)CC3)C2=O)ccc1-c1cn[nH]c1 [Example 225, 8-{4-[4-({[1,1′-biphenyl]-4-yl}methyl)piperazin-1-yl]benzoyl}-2-[3-methoxy-4-(1H-pyrazol-4-yl)phenyl]-2,8-diazaspiro[4.5]decan-1-one]
IC50: 4.5 nM

COc1cc(N2CCC3(CCN(C(=O)c4cc5n(n4)CCNC5=O)CC3)C2=O)ccc1-c1cn[nH]c1 [Example 114, 2-[3-methoxy-4-(1H-pyrazol-4-yl)phenyl]-8-{4-oxo-4H,5H,6H,7H-pyrazolo[1,5-a]pyrazine-2-carbonyl}-2,8-diazaspiro[4.5]decan-1-one]
IC50: 6 nM
